We go through one molecule from patent US9078859B2, “Use of a synergistic combination of hypothiocyanite and/or hypohalite ions and lactoferrin for preparing a treatment for cystic fibrosis” (ALAXIA, priority 2009, dated 2015).

Molecules are shown by their SMILES.

Common to all, as to format: cell-based
Experiment [1] concerns mucoid strain of Pseudomonas aeruginosa. Kind of experiment: in vitro contact-time test on a mucoid strain of Pseudomonas aeruginosa. How it is done: (§1) The solution from the example was tested in vitro on a mucoid strain of Pseudomonas aeruginosa, Burkholderia cepacia and Methicillin Resistant Staphylococcus Aureus.
For the next experiment, the system named is Burkholderia cepacia. Nature of the experiment: in vitro contact-time test on Burkholderia cepacia. How it is done:
as §1
Burkholderia cenocepacia J2315 (ATCC BAA 245 known to be resistant to Tobramycin and Colistin (Holden 2009, Soiza 2004)), derived from patients with cystic fibrosis.

Experiment [2] concerns Methicillin Resistant Staphylococcus aureus (MRSA). Kind of experiment: in vitro contact-time test on MRSA. How it is done:
as §1
Methicillin Resistant Staphylococcus aureus (MRSA)

Regarding `N#CSO` [500 μM OSCN, hypothiocyanite], the bacterial count in experiment [1] (contact time 0 hours) is given as 4.14 log CFU/ml; in experiment [1] (contact time 0.5 hours), 3.23 log CFU/ml; in experiment [1] (contact time 1 hour), 3.16 log CFU/ml; in experiment [1] (contact time 2 hours) it was 2.98 log CFU/ml; in experiment [1] (contact time 4 hours), 2.08 log CFU/ml; in experiment [1] (contact time 6 hours), 1.90 log CFU/ml. The bacterial count in experiment [1] (contact time 24 hours) worked out at 1.78 log CFU/ml; in the experiment on Burkholderia cepacia (contact time 0 hours) it was 4.41 log CFU/ml; in the experiment with Burkholderia cepacia (contact time 0.5 hours) it was 3.64 log CFU/ml; with Burkholderia cepacia (contact time 1 hour), 3.56 log CFU/ml; with Burkholderia cepacia (contact time 2 hours) it was 3.03 log CFU/ml; in the experiment with Burkholderia cepacia (contact time 4 hours), 2.08 log CFU/ml. For the same molecule, the bacterial count stood at 1.98 log CFU/ml in the experiment with Burkholderia cepacia (contact time 6 hours); 1.78 log CFU/ml in the experiment on Burkholderia cepacia (contact time 24 hours); 4.15 log CFU/ml in experiment [2] (contact time 0 hours); 3.80 log CFU/ml in experiment [2] (contact time 0.5 hours); 3.70 log CFU/ml in experiment [2] (contact time 1 hour); 3.33 log CFU/ml in experiment [2] (contact time 2 hours). Moreover, the bacterial count in experiment [2] (contact time 4 hours) came to 2.89 log CFU/ml; in experiment [2] (contact time 6 hours), 2.25 log CFU/ml; in experiment [2] (contact time 24 hours), 1.97 log CFU/ml.
